# Data published in the supplement of paper PMC9265050, “Inhibition of RNA Binding in SND1 Increases the Levels of miR-1-3p and Sensitizes Cancer Cells to Navitoclax” (Cancers, 2022).
# Test system: SW480
# Assay: drug sensitivity score (DSS, integrated dose-response area); higher = more sensitive (stronger viability reduction); extreme values may be limits of the assay
# Summary of the method: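 Viability of induced SW480 cells carrying control or SND1-targeting shRNA was read by CellTiter-Glo 72 h after plating at 1000 cells per well onto 384-well plates holding 525 small-molecule inhibitors at five concentrations. Induction used 0.1 µg/mL doxycycline for 7 days. Each drug sensitivity score integrates the area under a fitted non-linear dose–response model.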
# [1] = shRNA: SND1 shRNA1 (SND1 silenced)
# [2] = shRNA: control shRNA (non-targeting)
# [3] = shRNA: SND1 shRNA2 (SND1 silenced)
Compound,drug sensitivity score [1] [DSS],drug sensitivity score [2] [DSS],drug sensitivity score [3] [DSS]
O=C(O)CCCCC(CCSCc1ccccc1)SCc1ccccc1 (centres undefined) [CPI-613],0,0,–
C#Cc1cccc(Nc2ncnc3cc(OC)c(OCCCCCCC(=O)NO)cc23)c1 [CUDC-101],11.3,10.7,12.6
CN(C)c1cc2c(cc1Sc1nc3c(N)nccc3n1CCNCC(C)(C)C)OCO2 [CUDC-305],13.3,14.9,13.1
COc1ccc(-c2nc(N3CCOCC3)c3sc(CN(C)c4ncc(C(=O)NO)cn4)cc3n2)cn1 [CUDC-907],40.7,34.2,33.9
Cc1nc(N)sc1-c1ccnc(Nc2ccc(N3CCOCC3)cc2)n1 [CYC-116],9.3,8.8,–
CO[C@H]1C(=O)[C@]2(C)[C@@H](OC)C[C@H]3OC[C@@]3(OC(C)=O)[C@H]2[C@H](OC(=O)c2ccccc2)[C@]2(O)C[C@H](OC(=O)[C@H](O)[C@@H](NC(=O)OC(C)(C)C)c3ccccc3)C(C)=C1C2(C)C [Cabazitaxel],18.7,20.3,14.6
COc1cc2nccc(Oc3ccc(NC(=O)C4(C(=O)Nc5ccc(F)cc5)CC4)cc3)c2cc1OC [Cabozantinib],0,0.6,2.7
CC[C@@]1(O)C(=O)OCc2c1cc1n(c2=O)Cc2cc3ccccc3nc2-1 [Camptothecin],18.4,12.6,10.3
C=CC(=O)Nc1cc2c(Nc3ccc(F)c(Cl)c3)ncnc2cc1OCCCN1CCOCC1 [Canertinib],7,8.6,6.2
CCCCCOC(=O)Nc1nc(=O)n([C@@H]2O[C@H](C)[C@@H](O)[C@H]2O)cc1F [Capecitabine],0,0,0
O=C(O)C1(C(=O)O)CCC1.[NH2-].[NH2-].[Pt+2] [Carboplatin],1,0.5,–
CC(C)C[C@H](NC(=O)[C@H](CCc1ccccc1)NC(=O)CN1CCOCC1)C(=O)N[C@@H](Cc1ccccc1)C(=O)N[C@@H](CC(C)C)C(=O)[C@@]1(C)CO1 [Carfilzomib],22.9,24.6,24.5
O=NN(CCCl)C(=O)NCCCl [Carmustine],0,0.4,0
COc1cc2c(Oc3ccc4[nH]c(C)cc4c3F)ncnc2cc1OCCCN1CCCC1 [Cediranib],6.1,4.3,5.1
Cc1ccc(-c2cc(C(F)(F)F)nn2-c2ccc(S(N)(=O)=O)cc2)cc1 [Celecoxib],0,0,0
CCS(=O)(=O)N1CCN(c2ccc(Nc3ncc(C(N)=O)c(NC4CC4)n3)cc2)CC1 [Cerdulatinib],7.8,9.3,6.6
Cc1cc(Nc2ncc(Cl)c(Nc3ccccc3S(=O)(=O)C(C)C)n2)c(OC(C)C)cc1C1CCNCC1 [Ceritinib],2.1,0.2,0.8
O=C(O)CCCc1ccc(N(CCCl)CCCl)cc1 [Chlorambucil],0,0,0
CCN(CC)CCCC(C)Nc1ccnc2cc(Cl)ccc12 (centres undefined) [Chloroquine],14.9,11.6,–
CC(C)[C@H]1C(=O)N[C@@H](CCCNC(=N)N)C(=O)NCC(=O)N[C@@H](CC(=O)O)C(=O)N[C@H](Cc2ccccc2)C(=O)N1C [Cilengitide],0,0,0
N.N.[Cl][Pt][Cl] [Cisplatin],8.1,9.2,–
Nc1nc(Cl)nc2c1ncn2[C@H]1C[C@H](O)[C@@H](CO)O1 [Cladribine],2.4,0.5,0
Nc1nc(Cl)nc2c1ncn2[C@@H]1O[C@H](CO)[C@@H](O)[C@@H]1F [Clofarabine],8.4,6.5,0.7
CCN(CC)CCOc1ccc(C(=C(Cl)c2ccccc2)c2ccccc2)cc1 [Clomifene],7,6.1,5.3

Compound,drug sensitivity score [1] [DSS],drug sensitivity score [2] [DSS],drug sensitivity score [3] [DSS]
O=C(c1ccc(F)c(F)c1Nc1ccc(I)cc1F)N1CC(O)([C@@H]2CCCCN2)C1 [Cobimetinib],13.3,7.7,–
COc1c(OCCCN2CCOCC2)ccc2c1N=C(NC(=O)c1cnc(N)nc1)N1CCN=C21 [Copanlisib],4,0,0.3
CC1(COc2ccc3c(c2)ncn3-c2ccc3cccc(N4CCC(N)CC4)c3n2)COC1 [Crenolanib],11.9,13,11.7
C[C@@H](Oc1cc(-c2cnn(C3CCNCC3)c2)cnc1N)c1c(Cl)ccc(F)c1Cl [Crizotinib],0.6,2.9,0.2
O=P1(N(CCCl)CCCl)NCCCO1 (centres undefined) [Cyclophosphamide],0,0,0
Nc1ccn([C@@H]2O[C@H](CO)[C@@H](O)[C@@H]2O)c(=O)n1 [Cytarabine],5.4,3.6,0
CC(C)(C)c1nc(-c2cccc(NS(=O)(=O)c3c(F)cccc3F)c2F)c(-c2ccnc(N)n2)s1 [Dabrafenib],0,0,–
CN(C)/N=N/c1[nH]cnc1C(N)=O [Dacarbazine],0,0.7,1.9
COc1cc2ncnc(Nc3ccc(F)c(Cl)c3)c2cc1NC(=O)/C=C/CN1CCCCC1 [Dacomitinib],3.3,10.2,7
Cc1c2oc3c(C)ccc(C(=O)N[C@@H]4C(=O)N[C@H](C(C)C)C(=O)N5CCC[C@H]5C(=O)N(C)CC(=O)N(C)[C@@H](C(C)C)C(=O)O[C@@H]4C)c3nc-2c(C(=O)N[C@@H]2C(=O)N[C@H](C(C)C)C(=O)N3CCC[C@H]3C(=O)N(C)CC(=O)N(C)[C@@H](C(C)C)C(=O)O[C@@H]2C)c(N)c1=O [Dactinomycin],24.3,26.8,24
Cn1c(=O)n(-c2ccc(C(C)(C)C#N)cc2)c2c3cc(-c4cnc5ccccc5c4)ccc3ncc21 [Dactolisib],17.8,11.3,17.8
CO[C@@H](C(=O)N1Cc2[nH]nc(NC(=O)c3ccc(N4CCN(C)CC4)cc3)c2C1)c1ccccc1 [Danusertib],6.5,4.9,4.7
O=C(/C=C/c1cccnc1)NCCCCC1CCN(C(=O)c2ccccc2)CC1 [Daporinad],28.1,27.8,–
CCN(CC)CCN(Cc1ccc(-c2ccc(C(F)(F)F)cc2)cc1)C(=O)Cn1c(SCc2ccc(F)cc2)nc(=O)c2c1CCC2 [Darapladib],0.1,5.8,0
Cc1nc(Nc2ncc(C(=O)Nc3c(C)cccc3Cl)s2)cc(N2CCN(CCO)CC2)n1 [Dasatinib],0.5,2.1,6.2
COc1cccc2c1C(=O)c1c(O)c3c(c(O)c1C2=O)C[C@@](O)(C(C)=O)C[C@@H]3O[C@H]1C[C@H](N)[C@H](O)[C@H](C)O1 [Daunorubicin],9.5,10,7.3
Nc1ncn([C@H]2C[C@H](O)[C@@H](CO)O2)c(=O)n1 [Decitabine],11,5.5,8.2
CC(=O)N(O)CCCCCNC(=O)CCC(=O)N(O)CCCCCNC(=O)CCC(=O)N(O)CCCCCN [Deferoxamine],8,6.1,–
C[C@@H]1C[C@H]2[C@@H]3CCC4=CC(=O)C=C[C@]4(C)[C@@]3(F)[C@@H](O)C[C@]2(C)[C@@]1(O)C(=O)CO [Dexamethasone],0,1.3,1.8
CCc1cnn2c(NCc3ccc[n+]([O-])c3)cc(N3CCCC[C@H]3CCO)nc12 [Dinaciclib],18.1,20.1,15.8
CCN(CC)C(=S)SSC(=S)N(CC)CC [Disulfiram],29.7,28.6,–
CC(=O)O[C@@]12CO[C@@H]1C[C@H](O)[C@@]1(C)C(=O)[C@H](O)C3=C(C)[C@@H](OC(=O)[C@H](O)[C@@H](NC(=O)OC(C)(C)C)c4ccccc4)C[C@@](O)([C@@H](OC(=O)c4ccccc4)[C@H]21)C3(C)C [Docetaxel],18.1,19,16.5
Cc1ccc(-n2nc(C(C)(C)C)cc2NC(=O)Nc2ccc(OCCN3CCOCC3)c3ccccc23)cc1 [Doramapimod],4.1,6,5.5
CN1CCN(c2ccc3nc(-c4c(N)c5c(F)cccc5[nH]c4=O)[nH]c3c2)CC1 [Dovitinib],0.1,0,0
